According to patent US11325982B2, “Biparatopic and multiparatopic antibodies with common light chain and method of use” (XUANZHU BIOPHARMACEUTICAL CO., LTD., priority 2017, dated 2022):

What follows are substances tested on NCI-N87 cells (assay: Inhibition of proliferation of NCI-N87 cells (CCK-8)). Settings: 72 hours, FIG. 14.
Type: cell-based
Method: The growth curve of NCI-N87 was initially determined by plating cells at various densities in 96-well tissue culture plates. Cells were gown in RPMI-1640 medium supplemented with 10% fetal bovine serum (FBS).
24 hours later, 10 μl of antibody construct diluted to various concentrations with the medium were added to the cell culture. After the cells were cultured for additional 72 hours, the cell proliferation rates were determined by adding 10 μl of CCK-8 reagent (Sigma). After 3 hour of incubation without light, the plates were read at OD450 nm. The wells without addition of antibody were set as 100% cell viability and Docetaxel was used as a positive control for cytotoxicity. The data were then fitted into 4-parameter sigmoidal curve to generate IC50. The samples were done in triplicate.
For “T51: Biparatopic Fab-Ig: Bip_mAb_HC11 (VH_Pert_T30A; VH_Tra_N54T/D98S) with Tra_LC_N30S_S56Y; Fc M428L”, the growth inhibition was “inhibited growth” and the “growth inhibition effect compared with other antibodies” value was “had greater effect than pertuzumab (mAb T1) or trastuzumab (mAb T22)”.
With “T52: Biparatopic Fab-Ig: Bip_mAb_HC12 (VH_Pert_T30A/G56A; VH_Tra_N54T/D98S) with Tra_LC_N30S_S56Y” the growth inhibition was “inhibited growth” and the “growth inhibition effect compared with other antibodies” value was “had greater effect than pertuzumab (mAb T1) or trastuzumab (mAb T22)”.
With “T54: Biparatopic knob/hole heterodimer: HC14 (pert T30A) and HC15 (Tra N54T/D98S) with Tra_LC_N30S_S56Y” the growth inhibition was “inhibited growth” and the “growth inhibition effect compared with other antibodies” value was “had greater effect than pertuzumab (mAb T1) or trastuzumab (mAb T22)”.
pertuzumab [T1, reference compound] was tested, and the growth inhibition was “minimal effect” and the “growth inhibition effect compared with other antibodies” value was “somewhat greater effect”.
